Laboratory results taken from patent US9126979B2, “Compounds for inhibiting the interaction of BCL2 with binding partners” (Novartis AG, priority 2011, dated 2015).

Tests used:
[1] = molecular target: BCL-2 binding to biotinylated BAK peptide (Homo sapiens (Human), UniProt P10415); experiment: SPR (Biacore) solution inhibition assay, BCL-2 binding to BAK peptide surface; conditions: read-out: BCL2_SPR IC50 BAK
Description: (§1) The present method includes utility of a Surface plasmon resonance (SPR)-based biosensor (Biacore™′ GE Healthcare, Uppsala, Sweden) to characterize BCL-2 inhibitors.
(§2) Biacore™ utilizes the phenomenon of surface plasmon resonance (SPR) to detect and measure binding interactions. In a typical Biacore experiment, one of the interacting molecules (ligand) is immobilized on a flexible dextran matrix while the interacting partner (analyte) is allowed to flow across that surface. A binding interaction results in an increase in mass on the sensor surface and a corresponding direct change in the refractive index of the medium in the vicinity of the sensor surface. Changes in refractive index or signal are recorded in resonance units (R.U.) Signal changes due to association and dissociation of complexes are monitored in a non-invasive manner, continuously and in real-time, the results of which are reported in the form of a sensorgram.
(§3) The SPR assay is configured to examine solution inhibition of BCL-2 binding to peptide derivatized sensor surfaces to generate IC50 values as a measure of inhibitor potency.
(§4) Biacore™ A100 (GE Healthcare, Uppsala, Sweden) was used to conduct all experiments reported herein. Sensor surface preparation and all interaction analyses experiments were performed at 25° C. Reagents were purchased from GE Healthcare. Running buffer containing 10 mM Hepes, pH7.4, 150 mM sodium chloride, 1.25 mM Dithiothreitol, 3% Dimethyl sulfoxide and 0.05% polysorbate 20 were utilized throughout all analyses.
(§5) Biotinylated BAK, BAD and NOXA peptides were diluted to 10 nM in running buffer and captured onto a sensor surface pre-derivatized with streptavidin (sensor chip SA) to peptide surface densities in the range 50-100 R.U. Peptide captured surfaces were blocked with 50004 PEO2-Biotin.
(§6) Interaction analyses were performed by first equilibrating each sample within a 6 point three fold compound dilution series in the range […] with 56 nM BCL-2 for one hour during instrument start-up procedures. Protein compound mixtures were then injected over each peptide surface in parallel for 60 seconds at a flow-rate of 30 μL/min. 56 nM BCL-2 control samples were also prepared and run at regular intervals during the assay. Surface regeneration was performed at the end of each analysis cycle by two 30 second injections of 10 mM Glycine, pH 2.5, 1M Sodium Chloride, 0.05% polysorbate 20. Samples and control compound samples were run in duplicate and controls are also run at regular intervals during the assay to monitor surface and assay performance.
(§7) Data analyses are carried out using Biacore™ A100 evaluation software v1.1 to validate assay quality. Binding level report points were used relative to BCL-2 control samples to calculate % inhibition values for each compound protein mixture. […] The range of data shown in table 1 represents the high and low IC50 values obtained from multiple experiments.

[2] = molecular target: BCL-2 binding to biotinylated BAD peptide (Homo sapiens (Human), UniProt P10415); experiment: SPR (Biacore) solution inhibition assay, BCL-2 binding to BAD peptide surface; conditions: read-out: BCL2_SPR IC50 BAD
BCL-2 binding to biotinylated BAD peptide, sequence (P10415 whole entry): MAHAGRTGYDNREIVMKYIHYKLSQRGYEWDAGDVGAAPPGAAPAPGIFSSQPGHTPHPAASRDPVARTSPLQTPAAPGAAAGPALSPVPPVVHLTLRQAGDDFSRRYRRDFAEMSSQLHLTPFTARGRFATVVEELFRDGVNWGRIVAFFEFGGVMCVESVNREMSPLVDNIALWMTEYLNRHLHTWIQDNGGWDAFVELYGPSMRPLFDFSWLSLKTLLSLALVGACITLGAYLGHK
Description: as §1, §2, §3, §4, §5, §6, §7

BCL-2 binding to biotinylated BAK peptide, sequence (P10415 whole entry): as above

| SMILES | IC50 [1] [µM] | IC50 [2] [µM] |
| --- | --- | --- |
| CCCCN(CCCC)C(=O)c1nn(-c2ccc(OCC(=O)OCC)cc2C(=O)N2Cc3ccccc3C[C@H]2CO)c(C)c1Cl [Example 1, [4-(4-Chloro-3-dibutylcarbamoyl-5-methyl-pyrazol-1-yl)-3-((S)-3-hydroxymethyl-3,4-dihydro-1H-isoquinoline-2-carbonyl)-phenoxy]-acetic acid ethyl ester] | 0.363 to 0.405 | 0.509 to 0.515 |
| CCCCN(CCCC)C(=O)c1nn(-c2ccc(OCC(=O)O)cc2C(=O)N2Cc3ccccc3C[C@H]2CO)c(C)c1Cl [Example 2, [4-(4-Chloro-3-dibutylcarbamoyl-5-methyl-pyrazol-1-yl)-3-((S)-3-hydroxymethyl-3,4-dihydro-1H-isoquinoline-2-carbonyl)-phenoxy]-acetic acid] | 0.132 to 0.138 | 0.149 to 0.153 |
| CCCCN(CCCC)C(=O)c1nn(-c2ccc(OCC(=O)Nc3ccccc3)cc2C(=O)N2Cc3ccccc3C[C@H]2CO)c(C)c1Cl [Example 3, 4-Chloro-1-[2-((S)-3-hydroxymethyl-3,4-dihydro-1H-isoquinoline-2-carbonyl)-4-phenylcarbamoylmethoxy-phenyl]-5-methyl-1H-pyrazole-3-carboxylic acid dibutylamide] | 0.406 to 0.437 | 0.433 to 0.477 |
| CCCCN(CCCC)C(=O)c1cc(C)n(-c2cc(OCC(=O)OCC)ccc2C(=O)N2Cc3ccccc3C[C@H]2CO)n1 [Example 4, [3-(3-Dibutylcarbamoyl-5-methyl-pyrazol-1-yl)-4-((S)-3-hydroxymethyl-3,4-dihydro-1H-isoquinoline-2-carbonyl)-phenoxy]-acetic acid ethyl ester] | 0.771 to 0.776 | 1.17 to 1.36 |
| CCCCN(CCCC)C(=O)c1cc(C)n(-c2cc(OCC(=O)O)ccc2C(=O)N2Cc3ccccc3C[C@H]2CO)n1 [Example 5, [3-(3-Dibutylcarbamoyl-5-methyl-pyrazol-1-yl)-4-((S)-3-hydroxymethyl-3,4-dihydro-1H-isoquinoline-2-carbonyl)-phenoxy]-acetic acid] | 0.0823 to 0.0873 | 0.0989 to 0.105 |
| CCCCN(CCCC)C(=O)c1cc(C)n(-c2cc(OCC(=O)Nc3ccccc3)ccc2C(=O)N2Cc3ccccc3C[C@H]2CO)n1 [Example 6, 1-[2-((S)-3-Hydroxymethyl-3,4-dihydro-1H-isoquinoline-2-carbonyl)-5-phenylcarbamoylmethoxy-phenyl]-5-methyl-1H-pyrazole-3-carboxylic acid dibutylamide] | 1.27 to 1.3 | 2.09 to 2.1 |
| CCCCN(CCCC)C(=O)c1cc(C)n(-c2cc(OCC(=O)OCc3ccccc3)ccc2C(=O)N2Cc3ccccc3C[C@H]2CO)n1 [Example 7, [3-(3-Dibutylcarbamoyl-5-methyl-pyrazol-1-yl)-4-((S)-3-hydroxymethyl-3,4-dihydro-1H-isoquinoline-2-carbonyl)-phenoxy]-acetic acid benzyl ester] | 1.25 to 1.32 | 1.52 to 1.56 |
| CCCCN(CCCC)C(=O)c1cc(C)n(-c2cc(OCC(=O)Nc3ccccc3F)ccc2C(=O)N2Cc3ccccc3C[C@H]2CO)n1 [Example 8] | 1.7 to 1.74 | 2.88 to 3 |
| CCCCN(CCCC)C(=O)c1nn(-c2ccc(O)cc2C(=O)N2Cc3ccccc3C[C@H]2CO)c(C)c1Cl [Example 9] | 0.403 to 0.441 | 0.618 to 0.629 |
| CCCCN(CCCC)C(=O)c1nn(-c2ccc(OC)cc2C(=O)N2Cc3ccccc3C[C@H]2CO)c(C)c1Cl [Example 10] | 0.815 to 0.969 | 1.37 to 1.69 |
| CCCCN(CCCC)C(=O)c1cc(C)n(-c2cc(O)ccc2C(=O)N2Cc3ccccc3C[C@H]2CO)n1 [Example 11] | 0.238 to 0.256 | 0.258 to 0.299 |
| CCCCN(CCCC)C(=O)c1cc(C)n(-c2cc(OC)ccc2C(=O)N2Cc3ccccc3C[C@H]2CO)n1 [Example 12] | 0.267 to 0.299 | 0.447 to 0.493 |
